Reference: US9566290B2, “Boron-containing small molecules” (Anacor Pharmaceuticals, Inc., priority 2005, dated 2017)
Values after ≈ are worked out from the molar mass of the structure shown. Like-named read-outs stand apart in the source and are kept apart here.

Tests used:
[1] = test system: S. cerevisiae C10 resistant mutants (CDC60 editing domain mutations); test: MIC (NCCLS M27), spontaneous and EMS induced C10 resistant mutants; assay type: cell-based, Saccharomyces cerevisiae; settings: for MIC: Saccharomyces cerevisiae
Description: (§1) The haploid Saccharomyces cerevisiae strain ATCC 201388 was used in the selection of C10 resistant mutants. Spontaneous and EMS-induced resistant mutants were isolated from YPD agar plates containing 4×, 8×, 16×MIC of C10. All minimal inhibitory concentrations (MIC) were determined using NCCLS protocol M27 with the exception of using YPD or synthetic defined media. All yeast and molecular genetic manipulations were essentially performed as described by Guthrie C., et al., Methods in Enzymology, 350: Part B, (2002).
(§2) Resistant mutants appeared after 2 d incubation at 30° C. Frequency of resistance was determined by dividing the number of resistant mutants by the total number of cells plated as determined by plating dilutions of the overnight culture on YPD plates.
A 2.5 mL of the overnight culture, which was grown in YPD media, was centrifuged at 700×g for 5 minutes. The cell pellet was resuspended in 10 mL 50 mM potassium phosphate buffer, pH 7.0. The cell suspension was centrifuged again and the cell pellet was resuspended in phosphate buffer to obtain a cell density of 5×10^7 cells/mL as determined by counting the cells using a Petroff Hausser Counting Chamber (Horsham, Pa. USA). The cell suspension was shaken with 300 μL of EMS (Alfa Aesar, Ward Hill, Mass., USA) for 30 min. at 30° C. The mutagenesis was stopped by adding 10% (w/v) sodium thiosulfate (Sigma-Aldrich, St. Louis, Mo., USA), and the cells were pelleted by centrifugation at 700×g for 5 min. and resuspended in 1 mL sterile H2O. This was repeated once more before the cells were plated on YPD agar plates containing 1.6 μg/mL of C10.
(§3) The minimal inhibitory concentration (MIC) was essentially performed following the NCCLS guidelines outlined in the M27 protocol with the exception of using YPD or synthetic defined media (SDM).

[2] = test system: S. cerevisiae strain ATCC201388; test: Frequency of spontaneous resistance; assay type: cell-based, Saccharomyces cerevisiae; settings: spontaneous mutants, at 4×MIC
Description: as §2

[3] = test system: Saccharomyces cerevisiae strain ATCC 201388; test: MIC (NCCLS M27, YPD or synthetic defined media), haploid parental strain; assay type: cell-based; settings: Saccharomyces cerevisiae, read-out: MIC
Description: as §1, §3

[4] = test system: S. cerevisiae diploid (mutant strain/ATCC200901); test: MIC of diploids from yeast mating experiment; assay type: cell-based, Saccharomyces cerevisiae
Description: as §3
The haploid mutants derived from S. cerevisiae ATCC201388 were mixed with S. cerevisiae ATCC 200901, and were incubated on YPD agar plates at 30° C. for 4 h. The cell mixture was streaked out on synthetic defined media agar (BD, NJ USA) without the amino acids lysine and methionine, which are selective for diploids.

19 test strains of fungi = test: Antifungal MIC, microbroth dilution (NCCLS); assay type: cell-based; settings: MIC = over 90% reduction of growth, read-out: MIC values against all fungi tested
Description: (C10) is a novel compound in development for use as a topical antifungal treatment. The purpose of this study was to determine the minimum inhibitory concentration (MIC) for (C10) against 19 test strains of fungi including: Aspergillus fumigatus (A. fumigatus), Candida Albicans (C. albicans, both fluconazole sensitive and resistant strains), Candida glabrata (C. glabrata), Candida krusei (C. krusei), Cryptococcus neoformans (C. neoformans), Candida parapsilosis (C. parapsilosis), Candida tropicalis (C. tropicalis), Epidermophyton floccosum (E. floccosum), Fusarium solani (F. solani), Malassezia furfur (M. furfur), Malassezia pachydermatis (M. pachydermatis), Malassezia sympodialis (M. sympodialis), Microsporum audouinii (M. audouinii), Microsporum canis (M. canis), Microsporum gypseum (M. gypseum), Trichophyton mentagrophytes (T. mentagrophytes), Trichophyton rubrum (T. rubrum), Trichophyton tonsurans (T. tonsurans). Fungal growth was evaluated after exposure to different concentrations of (C10). In addition, the MIC for (C10) against T. rubrum in the presence of 5% keratin powder and the minimum fungicidal concentration (MFC) for (C10) against T. rubrum and T. mentagrophytes were also determined. Ciclopirox and/or terbinafine and/or fluconazole and/or itraconazole were used as comparators and tested in a similar manner. These studies were conducted at NAEJA Pharmaceutical, Inc. […]

For `OB1OCc2cc(F)ccc21` [C10, 5-fluorobenzo[c][1,2]oxaborol-1(3H)-ol], the “increase in resistance (MIC) of resistant mutants over wildtype” value ([1]; 11 C10 resistant mutants) was 8-64 fold, the “increased resistance over wildtype in the minimal inhibitory concentration test” value ([1]; 23 C10 resistant mutants (Example 41)) was 8-64 fold and the MIC ([1]; Table 1, mutant (A), CDC60 N415D) was 4 µg/mL (≈ 26.3 µM). For the same molecule, the MIC ([1]; Table 1, mutant (B), CDC60 R316I) was 16 µg/mL (≈ 105 µM), the MIC ([1]; Table 1, mutant (C), CDC60 C326F) was 16 µg/mL (≈ 105 µM) and the MIC ([1]; Table 1, mutant (D), CDC60 G405V) was 32 µg/mL (≈ 211 µM). For the same molecule, the MIC ([1]; Table 1, mutant (E), CDC60 C326R) was 16 µg/mL (≈ 105 µM), the MIC ([1]; Table 1, mutant (F), CDC60 D487G) was 32 µg/mL (≈ 211 µM) and the MIC ([1]; Table 1, mutant (G), CDC60 L315V) was 32 µg/mL (≈ 211 µM). For the same molecule, the MIC ([1]; Table 1, mutant (H), CDC60 T314M) was 32 µg/mL (≈ 211 µM), the MIC ([1]; Table 1, mutant (I), CDC60 S416L) was 32 µg/mL (≈ 211 µM) and the MIC ([1]; Table 1, mutant (J), CDC60 D487N) was 32 µg/mL (≈ 211 µM). The MIC ([1]; Table 1, mutant (K), CDC60 T319I) was 32 µg/mL (≈ 211 µM), the MIC ([1]; Table 2, C10 resistant mutant (C)) was 16 µg/mL (≈ 105 µM) and the MIC ([1]; Table 2, C10 resistant mutant (G)) was 16 µg/mL (≈ 105 µM). For the same molecule, the MIC ([1]; Table 2, C10 resistant mutant (H)) was 16 µg/mL (≈ 105 µM), the frequency of resistance [2] was 1.2×10^−7 and the MIC ([3]; ATCC201388, Table 1, haploid strain ATCC201388) was 0.5 µg/mL (≈ 3.29 µM). For the same molecule, the MIC ([3]; ATCC201388, Table 2, ATCC201388) was 0.5 µg/mL (≈ 3.29 µM), the MIC ([4]; Saccharomyces cerevisiae, ATCC200901) was 32 µg/mL and the MIC ([4]; Saccharomyces cerevisiae, ATCC 200901 / ATCC 201388) was 0.5 µg/mL. The “MIC” value ([4]; diploid (G)/ATCC200901) was 32 µg/mL, the “MIC” value ([4]; diploid (H)/ATCC200901) was 32 µg/mL and the “MIC of diploids from C10 mutants versus diploid from parental strain” value ([4]; three mutants mated with ATCC 200901) was 64 fold. For the same molecule, the MIC (19 test strains of fungi) was 0.25 to 2 µg/mL (≈ 1.65 to 13.2 µM).
